In brackets after ≈: the same amount, converted by molar mass. Activity calls are given as the source filed them. No cut-off for these calls is given here.
Experiments:
[1] = Cytotoxicity against mouse J774.A1 cells assessed as viable cells at 6.25 ug/mL incubated for 24 hrs by CCK-8 assay relative to control; format: toxicity, cell-based; conditions: at 6.25 µg/mL, read-out: Activity
[2] = test system: Candida albicans; assay: Antimicrobial activity against Candida albicans ATCC10231 assessed as fungal killing at 8 times of MIC measured at 1 hr by time-kill kinetics assay; format: functional, organism-based
[3] = test system: Candida albicans; assay: Induction of drug resistance in Candida albicans ATCC10231 assessed as change in MIC at sub-inhibitory concentration incubated for 21 to 22 passages; format: functional
[4] = Cytotoxicity against mouse corneal epithelial cells assessed as viable cells at 3.125 ug/mL incubated for 24 hrs by CCK-8 assay relative to control; format: toxicity, cell-based, Corneal epithelial cell; conditions: at 3.125 µg/mL, read-out: Activity
[5] = test system: Acinetobacter baumannii; assay: Antimicrobial activity against Acinetobacter baumannii R2889 assessed as bacterial growth inhibition incubated for 24 hrs by Muller Hinton broth based dilution assay; format: functional
[6] = Cytotoxicity against mouse J774.A1 cells assessed as viable cells at 50 ug/mL incubated for 24 hrs by CCK-8 assay relative to control; format: toxicity, cell-based; conditions: at 50 µg/mL, read-out: Activity
[7] = test system: Candida albicans; assay: Antimicrobial activity against Candida albicans CMCC98001 assessed as fungal growth inhibition incubated for 48 hrs in presence of 3220 ug/mL Na+ by Sabouraud Dextrose broth based dilution assay; format: functional
[8] = Cytotoxicity against mouse corneal epithelial cells assessed as viable cells at 50 ug/mL incubated for 24 hrs by CCK-8 assay relative to control; format: toxicity, cell-based, Corneal epithelial cell; conditions: at 50 µg/mL, read-out: Activity
[9] = Cytotoxicity against mouse J774.A1 cells assessed as viable cells at 25 ug/mL incubated for 24 hrs by CCK-8 assay relative to control; format: toxicity, cell-based; conditions: at 25 µg/mL, read-out: Activity
[10] = test system: Staphylococcus aureus; assay: Disruption of preformed biofilm in Staphylococcus aureus ATCC29213 assessed as residual preformed biofilm at 0.39 ug/mL incubated for 24 hrs by crystal violet staining based analysis relative to control; format: functional; conditions: dose 0.39 µg/ml
[11] = test system: Staphylococcus aureus; assay: Antimicrobial activity against methicillin-resistant Staphylococcus aureus NCTC10442 assessed as bacterial growth inhibition incubated for 24 hrs in presence of 100 ug/mL Ca2+ by Muller Hinton broth based dilution assay; format: functional
[12] = test system: Klebsiella pneumoniae; assay: Antimicrobial activity against Klebsiella pneumoniae ATCC14581 assessed as bacterial growth inhibition incubated for 24 hrs by Muller Hinton broth based dilution assay; format: functional
[13] = test system: Escherichia coli; assay: Antimicrobial activity against Escherichia coli ATCC25922 assessed as bacterial growth inhibition incubated for 24 hrs in presence of 100 ug/mL Ca2+ by Muller Hinton broth based dilution assay; format: functional
[14] = test system: Candida albicans; assay: Antimicrobial activity against Candida albicans ATCC10231 assessed as fungal growth inhibition incubated for 48 hrs by Sabouraud Dextrose broth based dilution assay; format: functional
[15] = test system: Staphylococcus aureus; assay: Antibiofilm activity against Staphylococcus aureus ATCC29213 assessed as inhibition of biofilm formation at 0.78 ug/mL incubated for 24 hrs by crystal violet staining based analysis relative to control; format: functional
[16] = test system: Candida albicans; assay: Antimicrobial activity against Candida albicans ATCC10231 assessed as fungal killing at 1 to 8 times of MIC measured upto 24 hrs by time-kill kinetics assay; format: functional, organism-based
[17] = test system: Cell membrane; assay: Induction of outer membrane permeabilization in Escherichia coli ATCC25922 assessed as increase in fluorescence intensity at 1 to 8 times of MIC measured for 1 hrs by NPN uptake assay
[18] = test system: Acinetobacter baumannii; assay: Antimicrobial activity against Acinetobacter baumannii ATCC17978 assessed as bacterial growth inhibition incubated for 24 hrs in presence of 100 ug/mL Ca2+ by Muller Hinton broth based dilution assay; format: functional
[19] = Cytotoxicity against mouse corneal epithelial cells assessed as viable cells at 12.5 ug/mL incubated for 24 hrs by CCK-8 assay relative to control; format: toxicity, cell-based, Corneal epithelial cell; conditions: at 12.5 µg/mL, read-out: Activity
[20] = test system: Staphylococcus aureus; assay: Antimicrobial activity against Staphylococcus aureus ATCC29213 assessed as log reduction in microbial load at 4 times of MIC measured at 1 hr by time-kill kinetics assay; format: functional
[21] = test system: Staphylococcus aureus; assay: Antimicrobial activity against Staphylococcus aureus ATCC29213 assessed as bacterial growth inhibition incubated for 24 hrs in presence of 24.3 ug/mL Mg2+ by Muller Hinton broth based dilution assay; format: functional
[22] = test system: Staphylococcus aureus; assay: Antimicrobial activity against Staphylococcus aureus ATCC29213 assessed as bacterial growth inhibition incubated for 24 hrs in presence of 100 ug/mL Ca2+ by Muller Hinton broth based dilution assay; format: functional
[23] = Hemolytic activity in rabbit RBC incubated for 1 hr by absorbance based microplate reader assay; format: toxicity, cell-based, Oryctolagus cuniculus, Erythrocyte; conditions: rabbit red blood cells (erythrocytes)
[24] = test system: Candida albicans; assay: Antimicrobial activity against Candida albicans ATCC10231 assessed as fungal killing at 8 times of MIC measured at 0.5 hr by time-kill kinetics assay; format: functional, organism-based
[25] = test system: Candida albicans; assay: Antimicrobial activity against Candida albicans ATCC10231 assessed as fungal killing at 4 times of MIC measured at 0.5 hr by time-kill kinetics assay; format: functional, organism-based

Compound	viability at 24 h, 6.25 ug/mL [1]	Activity [3]	viability at 24 h, 3.125 ug/mL [4]	MIC [5]	viability at 24 h, 50 ug/mL [6]	MIC [7]	viability at 24 h, 50 ug/mL [8]	viability at 24 h, 25 ug/mL [9]	Activity [10]	MIC [11]	MIC [12]	MIC [13]	MIC [14]	inhibition at 0.78 µg/mL [15]	Activity [16]	Activity [17]	MIC [18]	viability at 24 h, 12.5 ug/mL [19]	log(activity) [20]	MIC [21]	further results
CC(C)=CCN1CCCc2cc(OCCCCCCCCNC(=N)N)ccc21	96.3%	inactive	99.7%	3.12 µg/mL (≈ 8.08 µM)	31.3%	0.78 µg/mL	36.3%	58.8%	80.76%	0.78 µg/mL	3.12 µg/mL (≈ 8.08 µM)	3.12 µg/mL	0.78 µg/mL (≈ 2.02 µM)	93.6%	Dose-Dependent Effect	Active	3.12 µg/mL	87.6%	>3	0.78 µg/mL	Activity [2]: Active; MIC [22]: 0.78 µg/mL; HC50 at 1 h [23]: > 200 µg/mL
CCCCCCCCCN1CCCc2cc(OCCCCNC(=N)N)ccc21	97.4%	inactive	95.3%	3.12 µg/mL (≈ 8.04 µM)	42.5%	0.78 µg/mL	8.36%	72.6%	81.8%	0.78 µg/mL	1.56 µg/mL (≈ 4.01 µM)	3.12 µg/mL	1.56 µg/mL (≈ 4.01 µM)	91%	Dose-Dependent Effect	Active	3.12 µg/mL	78%	>3	0.78 µg/mL	Activity [24]: Active; Activity [25]: Active; MIC [22]: 0.78 µg/mL; HC50 at 1 h [23]: > 200 µg/mL
